In patent publication US20240115547A1, “PSYCHOTROPIC AGENTS AND USES THEREOF” (LB PHARMACEUTICALS INC., priority 2021, published 2024):

Test system: Dopamine (e.g., D2/D3)
Assay: Dopamine RO % by raclopride PET after LB-102, various dosage regimens (Example 3)
Type: in vivo, human
Conditions: for Dopamine RO % (Caudate + Putamen): group mean
Description: Healthy subjects were dosed orally with LB102 of 50 mg QD (n=4), 75 mg QD (n=4), 100 mg QD (n=4), 50 mg SS (n=2), or 100 mg SS (n=2). Subjects were, on average, 33 years old. Subjects dosed QD were given a single dose on day 1 after which PET scans were obtained; and subjects dosed SS, i.e., steady state, were dosed once a day for 4 days and PET scans were obtained after dosing on Day 4.
Dynamic […] raclopride PET scans were obtained 0 h, 2.5 h, 7.5 h, and 23.5 h after LB-102 administration for the 50 mg and 100 mg QD treatment groups and after LB-102 administration of Day 4 for the 50 mg SS and 100 mg SS treatment groups; and 0 h, 3.5 h, 23.5 h, and 47.5 h after LB-102 administration for the 75 mg QD treatment group. Dopamine % RO were calculated using the STRM method (https://pubmed.ncbi.nlm.nih.gov/9345505/, which is incorporated herein by reference) and the combined RO % (average of caudate and putamen RO %) are shown as squares FIGS. 5A (50 mg QD), 5B (75 mg QD), 5C (100 mg QD); and FIGS. 6A (50 mg SS Day 4) and 6B (100 mg SS Day 4); and summarized in Table 3-A below.
Dynamic ^11C raclopride PET scan results for calculation of dopamine RO % were measured in caudate, putamen, thalamus, and temporal lobe of each subject tested, and are summarized in Tables 3-B to 3-F below.

[1] = 75 mg QD, Subject 3, 3.5 h after LB-102 admin.
[2] = 75 mg QD, Subject 3, 23.5 h after LB-102 admin.
[3] = 75 mg QD, Subject 3, 47.5 h after LB-102 admin.
[4] = 75 mg QD, Subject 4, 3.5 h after LB-102 admin.
[5] = 75 mg QD, Subject 4, 23.5 h after LB-102 admin.
[6] = 75 mg QD, Subject 4, 47.5 h after LB-102 admin.
[7] = 100 mg QD, Subject 1, 2.5 h after LB-102 admin.
[8] = 100 mg QD, Subject 1, 7.5 h after LB-102 admin.
[9] = 100 mg QD, Subject 1, 23.5 h after LB-102 admin.
[10] = 100 mg QD, Subject 2, 2.5 h after LB-102 admin.
[11] = 100 mg QD, Subject 2, 7.5 h after LB-102 admin.
[12] = 100 mg QD, Subject 2, 23.5 h after LB-102 admin.
[13] = 100 mg QD, Subject 3, 2.5 h after LB-102 admin.
[14] = 100 mg QD, Subject 3, 7.5 h after LB-102 admin.
[15] = 100 mg QD, Subject 3, 23.5 h after LB-102 admin.
[16] = 100 mg QD, Subject 4, 2.5 h after LB-102 admin.
[17] = 100 mg QD, Subject 4, 7.5 h after LB-102 admin.
[18] = 100 mg QD, Subject 4, 23.5 h after LB-102 admin.
[19] = 100 mg SS (Day 4), Subject 3, ~3 h after LB-102 admin.
[20] = 100 mg SS (Day 4), Subject 3, ~8 h after LB-102 admin.
[21] = 100 mg SS (Day 4), Subject 3, ~24 h after LB-102 admin.
[22] = 100 mg SS (Day 4), Subject 4, ~3 h after LB-102 admin.
[23] = 100 mg SS (Day 4), Subject 4, ~8 h after LB-102 admin.
[24] = 100 mg SS (Day 4), Subject 4, ~24 h after LB-102 admin.

SMILES: CCN1CCCC1CNC(=O)c1cc(S(=O)(=O)CC)c(NC)cc1OC (stereo not shown) [LB-102]
- Dopamine RO % Putamen [1]: 50%
- Dopamine RO % Temporal lobe [1]: 28%
- Dopamine RO % Thalamus [1]: 37%
- Dopamine RO % Caudate [2]: 69%
- Dopamine RO % Putamen [2]: 53%
- Dopamine RO % Temporal lobe [2]: 20%
- Dopamine RO % Thalamus [2]: 36%
- Dopamine RO % Caudate [3]: 52%
- Dopamine RO % Putamen [3]: 38%
- Dopamine RO % Temporal lobe [3]: 16%
- Dopamine RO % Thalamus [3]: 20%
- Dopamine RO % Caudate [4]: 5%
- Dopamine RO % Putamen [4]: 2%
- Dopamine RO % Temporal lobe [4]: −2%
- Dopamine RO % Thalamus [4]: 5%
- Dopamine RO % Caudate [5]: 48%
- Dopamine RO % Putamen [5]: 37%
- Dopamine RO % Temporal lobe [5]: 27%
- Dopamine RO % Thalamus [5]: 21%
- Dopamine RO % Caudate [6]: 13%
- Dopamine RO % Putamen [6]: 12%
- Dopamine RO % Temporal lobe [6]: −6%
- Dopamine RO % Thalamus [6]: −25%
- Dopamine RO % (Caudate + Putamen) (100 mg QD, 0 h after LB-102 administration): 0%
- Dopamine RO % (Caudate + Putamen) (100 mg QD, 3 h after LB-102 administration): 41%
- Dopamine RO % (Caudate + Putamen) (100 mg QD, 8 h after LB-102 administration): 70%
- Dopamine RO % (Caudate + Putamen) (100 mg QD, 24 h after LB-102 administration): 69%
- Dopamine RO % Caudate [7]: 39%
- Dopamine RO % Putamen [7]: 32%
- Dopamine RO % Temporal lobe [7]: 18%
- Dopamine RO % Thalamus [7]: 28%
- Dopamine RO % Caudate [8]: 75%
- Dopamine RO % Putamen [8]: 67%
- Dopamine RO % Temporal lobe [8]: 24%
- Dopamine RO % Thalamus [8]: 40%
- Dopamine RO % Caudate [9]: 76%
- Dopamine RO % Putamen [9]: 68%
- Dopamine RO % Temporal lobe [9]: 13%
- Dopamine RO % Thalamus [9]: 26%
- Dopamine RO % Caudate [10]: 56%
- Dopamine RO % Putamen [10]: 52%
- Dopamine RO % Temporal lobe [10]: 17%
- Dopamine RO % Thalamus [10]: 42%
- Dopamine RO % Caudate [11]: 78%
- Dopamine RO % Putamen [11]: 75%
- Dopamine RO % Temporal lobe [11]: 17%
- Dopamine RO % Thalamus [11]: 49%
- Dopamine RO % Caudate [12]: 72%
- Dopamine RO % Putamen [12]: 66%
- Dopamine RO % Temporal lobe [12]: 22%
- Dopamine RO % Thalamus [12]: 43%
- Dopamine RO % Caudate [13]: 50%
- Dopamine RO % Putamen [13]: 46%
- Dopamine RO % Temporal lobe [13]: 20%
- Dopamine RO % Thalamus [13]: 34%
- Dopamine RO % Caudate [14]: 84%
- Dopamine RO % Putamen [14]: 77%
- Dopamine RO % Temporal lobe [14]: 24%
- Dopamine RO % Thalamus [14]: 46%
- Dopamine RO % Caudate [15]: 76%
- Dopamine RO % Putamen [15]: 69%
- Dopamine RO % Temporal lobe [15]: 22%
- Dopamine RO % Thalamus [15]: 39%
- Dopamine RO % Caudate [16]: 26%
- Dopamine RO % Putamen [16]: 25%
- Dopamine RO % Temporal lobe [16]: 10%
- Dopamine RO % Thalamus [16]: 31%
- Dopamine RO % Caudate [17]: 55%
- Dopamine RO % Putamen [17]: 49%
- Dopamine RO % Temporal lobe [17]: 15%
- Dopamine RO % Thalamus [17]: 49%
- Dopamine RO % Caudate [18]: 68%
- Dopamine RO % Putamen [18]: 56%
- Dopamine RO % Temporal lobe [18]: 15%
- Dopamine RO % Thalamus [18]: 39%
- Dopamine RO % Caudate [19]: 84%
- Dopamine RO % Putamen [19]: 80%
- Dopamine RO % Temporal lobe [19]: 19%
- Dopamine RO % Thalamus [19]: 50%
- Dopamine RO % Caudate [20]: 86%
- Dopamine RO % Putamen [20]: 83%
- Dopamine RO % Temporal lobe [20]: 18%
- Dopamine RO % Thalamus [20]: 51%
- Dopamine RO % Caudate [21]: 80%
- Dopamine RO % Putamen [21]: 73%
- Dopamine RO % Temporal lobe [21]: 23%
- Dopamine RO % Thalamus [21]: 48%
- Dopamine RO % Caudate [22]: 88%
- Dopamine RO % Putamen [22]: 79%
- Dopamine RO % Temporal lobe [22]: 32%
- Dopamine RO % Thalamus [22]: 78%
- Dopamine RO % Caudate [23]: 89%
- Dopamine RO % Putamen [23]: 80%
- Dopamine RO % Temporal lobe [23]: 25%
- Dopamine RO % Thalamus [23]: 80%
- Dopamine RO % Caudate [24]: 83%
- Dopamine RO % Putamen [24]: 72%
- Dopamine RO % Temporal lobe [24]: 31%
- Dopamine RO % Thalamus [24]: 69%
- Dopamine RO % (Caudate + Putamen) (100 mg SS (once a day for 4 days), 3 h after Day 4 administration): 88%
- Dopamine RO % (Caudate + Putamen) (100 mg SS (once a day for 4 days), 8 h after Day 4 administration): 82%
- Dopamine RO % (Caudate + Putamen) (100 mg SS (once a day for 4 days), 24 h after Day 4 administration): 76%
- dopamine RO after plasma concentration dropped (after combined plasma concentration of LB-102 and amisulpride dropped sub 10 ng/mL): persisted significantly
